For experiment [1], the target named is human FLAP (Homo sapiens (Human), UniProt P20292). Put plainly: FLAP binding assay (HTRF). The note with it: human FLAP-containing membranes, HTRF format; average of two assay plates, duplicates; read-out: FLAP Binding wild type HTRF Ki. The method in brief: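 HTRF ratio read-out; two independent plates, samples in duplicate on each, values averaged across plates.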
(In general: In TR-FRET formats the signal depends on donor and acceptor labels being close together.)

Experiment [2] has as its system leukotriene pathway in human whole blood (LTB4 levels). Put plainly: Human whole blood assay (LTB4). In kind it is cell-based. As to conditions: human whole blood diluted 1:1 in RPMI, stimulated with calcium ionophore A23187; single replicate. As to the method:
The ability of the compounds of the present invention to treat a FLAP-mediated disease and/or disorder, or associated symptoms or complications thereof, was determined using the following procedures. Binding assay data represent the average value obtained from two different assay plates, with samples run in duplicate on each plate. Human whole blood assay data represent a single replicate on an assay plate using whole blood from at least one healthy donor.
An in vitro cellular assay was performed using human whole blood collected in heparin-containing tubes, which was used to test the ability of compounds to modulate the leukotriene pathway in human whole blood. The blood was diluted 1:1 in RPMI medium, pre-incubated for 15 min at 37° Celsius with test compounds at various concentrations, and then stimulated with calcium ionophore, A23187 (7 μg/mL), for 30 min at 37° Celsius. The samples were then centrifuged and plasma was removed. The plasma was diluted in assay buffer and LTB4 levels were measured using a commercial kit (Enzo Life Sciences). The concentration of each compound that was required for half-maximal inhibition (modulation) of recombinant enzyme activity (IC50) was calculated by a 4-parameter equation using the program GraphPad Prism (GraphPad software).

Where a name gives a salt, the structure may show the parent alone.

As usually defined, the Ki is a dissociation constant, usually derived from enzyme kinetics or from competition with a known ligand. In general, IC50 refers to the concentration that gives 50% inhibition.

Chain of human FLAP (P20292 whole entry): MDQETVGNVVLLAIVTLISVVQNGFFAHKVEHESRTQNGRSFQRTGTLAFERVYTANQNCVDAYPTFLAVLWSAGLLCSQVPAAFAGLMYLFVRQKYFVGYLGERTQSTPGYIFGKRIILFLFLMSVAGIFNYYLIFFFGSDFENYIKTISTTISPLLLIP

Take `Cc1nc(Oc2c(C3CCC3)ccc(-c3cnc(N)cn3)c2F)cc(N(C)C)n1` [Example 235, 6-(3-(5-Aminopyrazin-2-yl)-6-cyclobutyl-2-fluorophenoxy)-N,N,2-trimethylpyrimidin-4-amine]: in experiment [1], the inhibitory constant (Ki) is 3.3 nM. Also, in experiment [2], the concentration for half-maximal inhibition (IC50) worked out at 113 nM.
The corresponding values for `Cc1cc(COc2c(C3CCC3)ccc(-c3cnc(N)cn3)c2F)no1` [Example 291, 5-{4-Cyclobutyl-2-fluoro-3-[(5-methylisoxazol-3-yl)methoxy]phenyl}pyrazin-2-amine trifluoroacetic acid salt] are 46.6 nM and 576 nM.
The like results for `Nc1cnc(-c2ccc(C3CCC3)c(Oc3ncccn3)c2F)cn1` [Example 118, 5-[4-Cyclobutyl-2-fluoro-3-(pyrimidin-2-yloxy)phenyl]pyrazin-2-amine] were, in that order, 10.5 nM and 65.7 nM.
With `N#Cc1ccc(COc2c(C3CCC3)ccc(-c3cnc(N)cn3)c2F)cn1` [Example 290, 5-{[3-(5-Aminopyrazin-2-yl)-6-cyclobutyl-2-fluorophenoxy]methyl}pyridine-2-carbonitrile trifluoroacetic acid salt], in experiment [1], the Ki stood at 39.9 nM. The concentration for half-maximal inhibition (IC50) in experiment [2] was determined as 506 nM.
The like results for `NC(=O)c1ccnc(Oc2c(C3CCC3)ccc(-c3cnc(N)cn3)c2F)n1` [Example 157, 2-[3-(5-Aminopyrazin-2-yl)-6-cyclobutyl-2-fluorophenoxy]pyrimidine-4-carboxamide] were, in that order, 20.6 nM and 109 nM.
The corresponding values for `CS(=O)(=O)c1ccc(Oc2c(C3CCC3)ccc(-c3cnc(N)cn3)c2F)cc1C(F)(F)F` [Example 133, 5-{4-Cyclobutyl-2-fluoro-3-[4-(methylsulfonyl)-3-(trifluoro-methyl)phenoxy]phenyl}pyrazin-2-amine] are 10.2 nM and 79.6 nM.
The like results for `Nc1cnc(-c2ccc(C3CCC3)c(Oc3ccncn3)c2F)cn1` [Example 260, 5-(4-Cyclobutyl-2-fluoro-3-(pyrimidin-4-yloxy)phenyl)pyrazin-2-amine] were, in that order, 19.9 nM and 197 nM.
On to `COc1cc(Oc2c(C3CCC3)ccc(-c3cnc(N)cn3)c2F)ncn1` [Example 97, 5-{4-Cyclobutyl-2-fluoro-3-[(6-methoxypyrimidin-4-yl)oxy]phenyl}pyrazin-2-amine], for which the inhibition constant Ki in experiment [1] was 32 nM. Moreover, the IC50 in experiment [2] was determined as 153 nM.
For the molecule `Nc1cnc(-c2ccc(C3CCC3)c(OCc3ccc(C(F)(F)F)cc3)c2F)cn1` [Example 1, 5-(4-Cyclobutyl-2-fluoro-3-{[4-(trifluoromethyl)benzyl]oxy}phenyl)-pyrazin-2-amine], the Ki in experiment [1] was 286 nM. Also, the concentration for half-maximal inhibition (IC50) in experiment [2] is 588 nM.
The like results for `Nc1ncc(-c2ccc(C3CCC3)c(Oc3ncccn3)c2F)cn1` [Example 160, 5-[4-Cyclobutyl-2-fluoro-3-(pyrimidin-2-yloxy)phenyl]pyrimidin-2-amine] were, in that order, 94.7 nM and 494 nM.
The corresponding values for `Cc1cc(Oc2c(C3CCC3)ccc(-c3cnc(N)cn3)c2F)nc(N(C)C)n1` [Example 236, 4-(3-(5-Aminopyrazin-2-yl)-6-cyclobutyl-2-fluorophenoxy)-N,N,6-trimethylpyrimidin-2-amine] are 2.2 nM and 37.1 nM.
The like results for `CCc1ccc(-c2cnc(N)cn2)c(F)c1Oc1nccc(N)n1` [Example 317, 2-[3-(5-Aminopyrazin-2-yl)-6-ethyl-2-fluorophenoxy]pyrimidin-4-amine] were, in that order, 198 nM and 464 nM.
Regarding “6-cyclobutyl-2-fluoro-3-(5H-pyrrolo[2,3-b]pyrazin-2-yl)phenol [Example 176]”, in experiment [1], the Ki worked out at 100 nM. The concentration for half-maximal inhibition (IC50) in experiment [2] came to 892 nM.
The corresponding values for `CN(C)S(=O)(=O)c1ccc(COc2c(C3CCC3)ccc(-c3cnc(N)cn3)c2F)cc1` [Example 25, 4-{[3-(5-Aminopyrazin-2-yl)-6-cyclobutyl-2-fluorophenoxy]methyl}-N,N-dimethylbenzenesulfonamide] are 12 nM and 576 nM.
The like results for `COc1ccnc(Oc2c(C3CCC3)ccc(-c3cnc(N)cn3)c2F)n1` [Example 93, 5-{4-Cyclobutyl-2-fluoro-3-[(4-methoxypyrimidin-2-yl)oxy]phenyl}pyrazin-2-amine] were, in that order, 3 nM and 30.8 nM.
As to `Nc1cnc(-c2ccc(C3CCC3)c(OCc3ccc(Cl)cn3)c2F)cn1` [Example 289, 5-{3-[(5-Chloropyridin-2-yl)methoxy]-4-cyclobutyl-2-fluorophenyl}pyrazin-2-amine trifluoroacetic acid salt], the Ki in experiment [1] came to 229 nM. Besides, the half-inhibitory concentration (IC50) in experiment [2] is 782 nM.
Turning to `Nc1cnc(-c2ccc(C3CC3)c(Oc3ncccn3)c2F)cn1` [Example 278, 5-[4-Cyclopropyl-2-fluoro-3-(pyrimidin-2-yloxy)phenyl]pyrazin-2-amine], the Ki in experiment [1] was determined as 100 nM. For the same molecule, the concentration for half-maximal inhibition (IC50) in experiment [2] is 216 nM.
In the case of `CC(C)Cc1cc(Oc2c(C3CCC3)ccc(-c3cnc(N)cn3)c2F)nc(N)n1` [Example 242, 4-(3-(5-aminopyrazin-2-yl)-6-cyclobutyl-2-fluorophenoxy)-6-isobutylpyrimidin-2-amine], in experiment [1], the Ki was 3.6 nM. For the same molecule, in experiment [2], the half-inhibitory concentration (IC50) worked out at 30 nM.
Regarding `Nc1cnc(-c2ccc(C3CCC3)c(OCc3c(Cl)cccc3Cl)c2F)cn1` [Example 37, 5-{4-Cyclobutyl-3-[(2,6-dichlorobenzyl)oxy]-2-fluorophenyl}pyrazin-2-amine], the Ki in experiment [1] turned out to be 250 nM. Further, in experiment [2], the half-maximal inhibitory concentration (IC50) was 2500 nM.
The like results for `Cc1ccnc(Oc2c(C3CCC3)ccc(-c3cnc(N)nc3)c2F)n1` [Example 163, 5-{4-Cyclobutyl-2-fluoro-3-[(4-methylpyrimidin-2-yl)oxy]phenyl}pyrimidin-2-amine] were, in that order, 70.4 nM and 494 nM.
With `Nc1cnc(-c2ccc(C3CCC3)c(Oc3ncc(C(F)(F)F)cn3)c2F)cn1` [Example 104, 5-(4-Cyclobutyl-2-fluoro-3-{[5-(trifluoromethyl)pyrimidin-2-yl]oxy}phenyl)pyrazin-2-amine], the Ki in experiment [1] was found to be 100 nM. Further, in experiment [2], the IC50 worked out at 2810 nM.
The like results for `Nc1cnc(-c2ccc(C3CCCC3)c(OCc3ccccc3)c2F)cn1` [Example 212, 5-[3-(Benzyloxy)-4-cyclopentyl-2-fluorophenyl]pyrazin-2-amine] were, in that order, 64 nM and 1100 nM.
The corresponding values for `Nc1cnc(-c2ccc(C3CCC3)c(Oc3ccc(C(F)(F)F)nn3)c2F)cn1` [Example 106, 5-(4-Cyclobutyl-2-fluoro-3-{[6-(trifluoromethyl)pyridazin-3-yl]oxy}phenyl)pyrazin-2-amine] are 84 nM and 376 nM.
As to `Nc1cnc(-c2ccc(C3CCC3)c(OCc3nc(C(=O)O)co3)c2F)cn1` [Example 282, 2-{[3-(5-Aminopyrazin-2-yl)-6-cyclobutyl-2-fluorophenoxy]methyl}-1,3-oxazole-4-carboxylic acid trifluoroacetic acid salt], the Ki in experiment [1] stood at 29.4 nM. In addition, the half-maximal inhibitory concentration (IC50) in experiment [2] was greater than 10000 nM.
As for `Oc1c(C2CCC2)ccc(-c2cnc3c(c2)OCCN3)c1F` [Example 185, 6-cyclobutyl-3-(3,4-dihydro-2H-pyrido[3,2-b][1,4]oxazin-7-yl)-2-fluorophenol], in experiment [1], the inhibition constant (Ki) was determined as 19.6 nM. The IC50 in experiment [2] stood at 1010 nM.
The like results for `CC(C)(C)c1ccc(-c2cnc(N)nc2)c(F)c1Oc1cc(N)ncn1` [Example 208, 5-{3-[(6-Aminopyrimidin-4-yl)oxy]-4-tert-butyl-2-fluorophenyl}pyrimidin-2-amine] were, in that order, 46.5 nM and 215 nM.
Take `N#Cc1cccc(COc2c(C3CCC3)ccc(-c3cnc(N)cn3)c2F)n1` [Example 292, 6-{[3-(5-Aminopyrazin-2-yl)-6-cyclobutyl-2-fluorophenoxy]methyl}pyridine-2-carbonitrile trifluoroacetic acid salt]: the Ki in experiment [1] was 37.2 nM. The IC50 in experiment [2] worked out at 412 nM.
With `CC(C)(C)Cc1ccc(-c2cnc(N)cn2)c(F)c1Oc1ncccn1` [Example 324, 5-(2-Fluoro-4-neopentyl-3-(pyrimidin-2-yloxy)phenyl)pyrazin-2-amine], the inhibitory constant (Ki) in experiment [1] worked out at 73.8 nM. The half-inhibitory concentration (IC50) in experiment [2] was determined as 260 nM.
`Cc1nccc(Oc2c(C3CCC3)ccc(-c3cnc(N)cn3)c2F)n1` [Example 134, 5-{4-Cyclobutyl-2-fluoro-3-[(2-methylpyrimidin-4-yl)oxy]phenyl}pyrazin-2-amine]: the inhibition constant Ki in experiment [1] worked out at 6.2 nM. The concentration for half-maximal inhibition (IC50) in experiment [2] is 39.7 nM.
The like results for `CC(C)(C)c1ccc(-c2cnc(N)nc2)c(F)c1Oc1nccc(N)n1` [Example 209, 5-{3-[(4-Aminopyrimidin-2-yl)oxy]-4-tert-butyl-2-fluorophenyl}pyrimidin-2-amine] were, in that order, 23.3 nM and 51.1 nM.
As for `Nc1cnc(-c2ccc(C3CCC3)c(OCCO)c2F)cn1` [Example 250, 2-(3-(5-Aminopyrazin-2-yl)-6-cyclobutyl-2-fluorophenoxy)ethanol], the inhibition constant (Ki) in experiment [1] stood at 99.2 nM. In experiment [2], the IC50 turned out to be 357 nM.
The like results for `Nc1cnc(-c2ccc(C3CCC3)c(OCc3ccc(C(=O)O)cc3)c2F)cn1` [Example 5, 4-{[3-(5-Aminopyrazin-2-yl)-6-cyclobutyl-2-fluorophenoxy]methyl}benzoic acid] were, in that order, 11 nM and 263 nM.

The record behind these values is patent US9073876B2, “Flap modulators” (JANSSEN PHARMACEUTICA NV, priority 2013, dated 2015).
